# Test results taken from publication PMC12668310, “High‐Throughput Synthesis and Screening of a Cyanimide Library Identifies Selective Inhibitors of ISG15‐Specific Protease mUSP18” (Angewandte Chemie (International Ed. in English), 2025).
# Target: T1, OTUB2 (Homo sapiens, UniProt Q96DC9)
# T1 sequence (Q96DC9 1-234): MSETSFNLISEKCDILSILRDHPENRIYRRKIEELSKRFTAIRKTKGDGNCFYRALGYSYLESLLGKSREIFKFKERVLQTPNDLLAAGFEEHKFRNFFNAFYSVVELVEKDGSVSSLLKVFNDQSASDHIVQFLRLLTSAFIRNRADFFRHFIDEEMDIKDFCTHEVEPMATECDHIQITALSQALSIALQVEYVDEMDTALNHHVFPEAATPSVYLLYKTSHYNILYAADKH
# Assay: High-throughput screening, Ub-RhoMP, single dose 1.25 µM
# Assay type: biochemical
# Parameters: (1-234); His6 (cleaved yes); made in house
# Settings: individual amine building block (plate NCN-5); read-out: BB %inhibition OTUB2
# Protocol: (§1) Since the in‐plate synthesis was conducted in 1536‐well Echo plates, the compounds could readily be transferred from these plates into 1536‐well assay plates using acoustic liquid dispensing (Figure 2a) and subjected to HTS. We screened the whole 7536 compound library against a panel of twelve enzymes, including three DUBs from the UCH family, two DUBs from the OTU family, five DUBs from the USP family, plus ISG15 protease USP18, and SUMO protease SENP1. Each compound was tested at a single dose of 1.25 µM, assuming full conversion (10 mM in DMSO of the formed products) during the in‐plate synthesis, using the fluorogenic assay described above. […] The compounds are sorted by the amine building blocks (BB1‐16), and within each BB, sorted by carboxylic acid (CA1‐471), thereby providing a comprehensive and systematic overview of the overall inhibition by each BB and CA combination. Some interesting patterns can be obtained from this map. […] Indeed, BB10 is the privileged scaffold for UCHL1 as it originates from UCHL1 inhibitor 5 (Figure 1). […] On the other hand, OTUD1 and USP32 show a much higher hit rate, and this is even more pronounced for USP30 and ISG15 protease mUSP18, each showing many active compounds distributed over several BB's.
# (§2) Purified recombinant enzymes used in this study
# (§3) High-throughput screening
# (§4) The screens were performed at room temperature in “flat bottom, non-treated, black […]
# (§5) µM. The compounds (10 nL each) were transferred from the 1 mM daughter plates to the […]
# (§6) Four wells containing DMSO
# (§7) (10 nL) and four wells containing NEM (10 mM final concentration) were used in each plate […]
# (§8) solution (1.33x final concentration) was added to each well, followed by incubation for 30 min.
# (§9) Next, 2 µL of a substrate solution (4x final concentration) was added to each well (Ub-RhoMP[2]
# (§10) After 1h or 2h incubation the
# (§11) The percentage inhibition was calculated for each well using the […]
# (§12) Where FIx is the fluorescence intensity of each well, FIpos is the average fluorescence intensity of the positive (NEM) control wells, and FIneg is the average fluorescence intensity of the negative (DMSO) control wells.
row,inhibition at 1.25 µM [%],SMILES
1,2.7,N#CN1CCC[C@@H](N)C1 [BB4]
2,-1.3,N#CN1CCC[C@H](N)C1 [BB8]
3,-2,N#CN1CC[C@@H](NC(=O)c2ccc(CN)cc2)C1 [BB9]

# Continued, compound first:
row,SMILES,inhibition at 1.25 µM [%]
1,N#CN1CC[C@@H](N)C1 [BB1],3.3
2,N#CN1CCC(N)CC1 [BB2],0.9
3,N#CN1CC[C@H](N)C1 [BB3],0.556
4,N#CN1CC(N)C1 [BB5],-1.4
5,N#CN1C[C@H]2C[C@@H](N)C[C@H]2C1 [BB6],-1.5
6,N#CN1C[C@H]2C[C@H](N)C[C@H]2C1 [BB7],-3.8
7,N#CN1CC[C@H](C(=O)Nc2nc3c(s2)CNCC3)C1 [BB10],-5.1

# Target: T2, USP32 (Homo sapiens, UniProt Q8NFA0)
# T2 construct: (1-1604); His-tag (N); made in house
# Assay: as above
# Assay type: biochemical
# Settings: individual amine building block (plate NCN-5); read-out: BB %inhibition USP32
# Protocol: as §1, §2, §3, §4, §5, §6, §7, §8, §9, §10, §11, §12
# T2 sequence (Q8NFA0 whole entry): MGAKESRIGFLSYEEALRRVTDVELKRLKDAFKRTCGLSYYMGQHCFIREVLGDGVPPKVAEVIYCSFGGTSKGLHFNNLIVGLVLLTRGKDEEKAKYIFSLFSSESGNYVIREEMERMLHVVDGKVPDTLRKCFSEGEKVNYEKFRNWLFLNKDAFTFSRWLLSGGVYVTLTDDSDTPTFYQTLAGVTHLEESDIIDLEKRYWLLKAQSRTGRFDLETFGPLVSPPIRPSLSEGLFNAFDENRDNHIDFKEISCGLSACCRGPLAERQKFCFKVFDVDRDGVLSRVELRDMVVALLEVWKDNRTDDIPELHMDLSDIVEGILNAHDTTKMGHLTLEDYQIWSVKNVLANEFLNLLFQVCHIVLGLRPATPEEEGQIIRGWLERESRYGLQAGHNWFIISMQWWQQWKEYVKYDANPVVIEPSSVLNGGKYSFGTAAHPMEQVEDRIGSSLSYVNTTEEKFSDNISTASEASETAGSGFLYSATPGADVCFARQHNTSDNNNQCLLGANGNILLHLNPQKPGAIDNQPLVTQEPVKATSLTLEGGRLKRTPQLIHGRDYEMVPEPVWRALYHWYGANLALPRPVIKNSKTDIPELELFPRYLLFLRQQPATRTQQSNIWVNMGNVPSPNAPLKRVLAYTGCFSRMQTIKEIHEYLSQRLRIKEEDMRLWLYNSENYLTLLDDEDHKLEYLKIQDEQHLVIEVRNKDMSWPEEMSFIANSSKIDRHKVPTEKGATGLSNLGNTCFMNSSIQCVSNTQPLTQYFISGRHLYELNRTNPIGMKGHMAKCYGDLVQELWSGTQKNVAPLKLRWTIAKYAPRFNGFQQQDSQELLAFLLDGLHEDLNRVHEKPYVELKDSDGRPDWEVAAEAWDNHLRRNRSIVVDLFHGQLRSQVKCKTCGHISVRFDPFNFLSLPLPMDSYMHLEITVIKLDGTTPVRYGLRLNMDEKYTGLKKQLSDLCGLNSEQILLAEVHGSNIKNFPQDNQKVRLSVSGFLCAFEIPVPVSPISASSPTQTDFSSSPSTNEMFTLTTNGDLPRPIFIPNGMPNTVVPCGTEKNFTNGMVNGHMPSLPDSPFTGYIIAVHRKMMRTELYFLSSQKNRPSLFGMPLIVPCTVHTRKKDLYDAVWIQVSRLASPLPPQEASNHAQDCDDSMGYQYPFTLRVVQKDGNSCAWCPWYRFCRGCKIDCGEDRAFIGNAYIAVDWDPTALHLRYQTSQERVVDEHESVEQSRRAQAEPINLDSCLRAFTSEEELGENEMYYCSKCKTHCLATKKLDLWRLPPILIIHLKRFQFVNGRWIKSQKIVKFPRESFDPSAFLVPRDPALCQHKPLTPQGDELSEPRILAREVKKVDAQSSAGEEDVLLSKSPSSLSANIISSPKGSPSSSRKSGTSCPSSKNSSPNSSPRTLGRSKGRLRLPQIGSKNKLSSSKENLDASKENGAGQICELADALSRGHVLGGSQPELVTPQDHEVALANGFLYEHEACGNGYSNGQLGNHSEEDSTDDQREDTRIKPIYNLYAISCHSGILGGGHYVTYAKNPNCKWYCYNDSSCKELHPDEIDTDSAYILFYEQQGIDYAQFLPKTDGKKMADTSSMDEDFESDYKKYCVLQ
row,inhibition at 1.25 µM [%],SMILES
1,4.7,N#CN1CCC[C@@H](N)C1 [BB4]
2,1.3,N#CN1CCC[C@H](N)C1 [BB8]
3,2.8,N#CN1CC[C@@H](NC(=O)c2ccc(CN)cc2)C1 [BB9]

# Second part, the compound before the results:
row,SMILES,inhibition at 1.25 µM [%]
1,N#CN1CC[C@@H](N)C1 [BB1],9.5
2,N#CN1CCC(N)CC1 [BB2],9
3,N#CN1CC[C@H](N)C1 [BB3],8.4
4,N#CN1CC(N)C1 [BB5],5.3
5,N#CN1C[C@H]2C[C@@H](N)C[C@H]2C1 [BB6],6
6,N#CN1C[C@H]2C[C@H](N)C[C@H]2C1 [BB7],2.8
7,N#CN1CC[C@H](C(=O)Nc2nc3c(s2)CNCC3)C1 [BB10],1.5

# Target: T3, UCHL3 (Homo sapiens, UniProt P15374)
# T3 construct: (1-230); made in house
# T3 sequence (P15374 1-230): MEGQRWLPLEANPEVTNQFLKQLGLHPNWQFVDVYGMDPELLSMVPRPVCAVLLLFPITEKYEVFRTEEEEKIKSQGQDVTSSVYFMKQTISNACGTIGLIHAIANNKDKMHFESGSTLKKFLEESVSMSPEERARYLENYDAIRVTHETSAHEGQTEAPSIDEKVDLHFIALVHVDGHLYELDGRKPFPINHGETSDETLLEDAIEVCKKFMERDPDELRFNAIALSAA
# Assay: as above
# Assay type: biochemical
# Settings: individual amine building block (plate NCN-5); read-out: BB %inhibition UCHL3
# Protocol: as §1, §2, §3, §4, §5, §6, §7, §8, §9, §10, §11, §12
row,inhibition at 1.25 µM [%],SMILES
1,2,N#CN1CCC[C@@H](N)C1 [BB4]
2,-2.2,N#CN1CCC[C@H](N)C1 [BB8]
3,-2.3,N#CN1CC[C@@H](NC(=O)c2ccc(CN)cc2)C1 [BB9]

# Second part, the compound before the results:
row,SMILES,inhibition at 1.25 µM [%]
1,N#CN1CC[C@@H](N)C1 [BB1],5.9
2,N#CN1CCC(N)CC1 [BB2],3.9
3,N#CN1CC[C@H](N)C1 [BB3],0.6
4,N#CN1CC(N)C1 [BB5],-0.9
5,N#CN1C[C@H]2C[C@@H](N)C[C@H]2C1 [BB6],-4.7
6,N#CN1C[C@H]2C[C@H](N)C[C@H]2C1 [BB7],-7.4
7,N#CN1CC[C@H](C(=O)Nc2nc3c(s2)CNCC3)C1 [BB10],-5.1

# Target: T4, USP24 (Homo sapiens, UniProt Q9UPU5)
# T4 construct: (1-2620); His10; purchased Biotechne E-616
# Assay: as above
# Assay type: biochemical
# Settings: individual amine building block (plate NCN-5); read-out: BB %inhibition USP24
# Protocol: as §1, §2, §3, §4, §5, §6, §7, §8, §9, §10, §11, §12
# T4 sequence (Q9UPU5 whole entry): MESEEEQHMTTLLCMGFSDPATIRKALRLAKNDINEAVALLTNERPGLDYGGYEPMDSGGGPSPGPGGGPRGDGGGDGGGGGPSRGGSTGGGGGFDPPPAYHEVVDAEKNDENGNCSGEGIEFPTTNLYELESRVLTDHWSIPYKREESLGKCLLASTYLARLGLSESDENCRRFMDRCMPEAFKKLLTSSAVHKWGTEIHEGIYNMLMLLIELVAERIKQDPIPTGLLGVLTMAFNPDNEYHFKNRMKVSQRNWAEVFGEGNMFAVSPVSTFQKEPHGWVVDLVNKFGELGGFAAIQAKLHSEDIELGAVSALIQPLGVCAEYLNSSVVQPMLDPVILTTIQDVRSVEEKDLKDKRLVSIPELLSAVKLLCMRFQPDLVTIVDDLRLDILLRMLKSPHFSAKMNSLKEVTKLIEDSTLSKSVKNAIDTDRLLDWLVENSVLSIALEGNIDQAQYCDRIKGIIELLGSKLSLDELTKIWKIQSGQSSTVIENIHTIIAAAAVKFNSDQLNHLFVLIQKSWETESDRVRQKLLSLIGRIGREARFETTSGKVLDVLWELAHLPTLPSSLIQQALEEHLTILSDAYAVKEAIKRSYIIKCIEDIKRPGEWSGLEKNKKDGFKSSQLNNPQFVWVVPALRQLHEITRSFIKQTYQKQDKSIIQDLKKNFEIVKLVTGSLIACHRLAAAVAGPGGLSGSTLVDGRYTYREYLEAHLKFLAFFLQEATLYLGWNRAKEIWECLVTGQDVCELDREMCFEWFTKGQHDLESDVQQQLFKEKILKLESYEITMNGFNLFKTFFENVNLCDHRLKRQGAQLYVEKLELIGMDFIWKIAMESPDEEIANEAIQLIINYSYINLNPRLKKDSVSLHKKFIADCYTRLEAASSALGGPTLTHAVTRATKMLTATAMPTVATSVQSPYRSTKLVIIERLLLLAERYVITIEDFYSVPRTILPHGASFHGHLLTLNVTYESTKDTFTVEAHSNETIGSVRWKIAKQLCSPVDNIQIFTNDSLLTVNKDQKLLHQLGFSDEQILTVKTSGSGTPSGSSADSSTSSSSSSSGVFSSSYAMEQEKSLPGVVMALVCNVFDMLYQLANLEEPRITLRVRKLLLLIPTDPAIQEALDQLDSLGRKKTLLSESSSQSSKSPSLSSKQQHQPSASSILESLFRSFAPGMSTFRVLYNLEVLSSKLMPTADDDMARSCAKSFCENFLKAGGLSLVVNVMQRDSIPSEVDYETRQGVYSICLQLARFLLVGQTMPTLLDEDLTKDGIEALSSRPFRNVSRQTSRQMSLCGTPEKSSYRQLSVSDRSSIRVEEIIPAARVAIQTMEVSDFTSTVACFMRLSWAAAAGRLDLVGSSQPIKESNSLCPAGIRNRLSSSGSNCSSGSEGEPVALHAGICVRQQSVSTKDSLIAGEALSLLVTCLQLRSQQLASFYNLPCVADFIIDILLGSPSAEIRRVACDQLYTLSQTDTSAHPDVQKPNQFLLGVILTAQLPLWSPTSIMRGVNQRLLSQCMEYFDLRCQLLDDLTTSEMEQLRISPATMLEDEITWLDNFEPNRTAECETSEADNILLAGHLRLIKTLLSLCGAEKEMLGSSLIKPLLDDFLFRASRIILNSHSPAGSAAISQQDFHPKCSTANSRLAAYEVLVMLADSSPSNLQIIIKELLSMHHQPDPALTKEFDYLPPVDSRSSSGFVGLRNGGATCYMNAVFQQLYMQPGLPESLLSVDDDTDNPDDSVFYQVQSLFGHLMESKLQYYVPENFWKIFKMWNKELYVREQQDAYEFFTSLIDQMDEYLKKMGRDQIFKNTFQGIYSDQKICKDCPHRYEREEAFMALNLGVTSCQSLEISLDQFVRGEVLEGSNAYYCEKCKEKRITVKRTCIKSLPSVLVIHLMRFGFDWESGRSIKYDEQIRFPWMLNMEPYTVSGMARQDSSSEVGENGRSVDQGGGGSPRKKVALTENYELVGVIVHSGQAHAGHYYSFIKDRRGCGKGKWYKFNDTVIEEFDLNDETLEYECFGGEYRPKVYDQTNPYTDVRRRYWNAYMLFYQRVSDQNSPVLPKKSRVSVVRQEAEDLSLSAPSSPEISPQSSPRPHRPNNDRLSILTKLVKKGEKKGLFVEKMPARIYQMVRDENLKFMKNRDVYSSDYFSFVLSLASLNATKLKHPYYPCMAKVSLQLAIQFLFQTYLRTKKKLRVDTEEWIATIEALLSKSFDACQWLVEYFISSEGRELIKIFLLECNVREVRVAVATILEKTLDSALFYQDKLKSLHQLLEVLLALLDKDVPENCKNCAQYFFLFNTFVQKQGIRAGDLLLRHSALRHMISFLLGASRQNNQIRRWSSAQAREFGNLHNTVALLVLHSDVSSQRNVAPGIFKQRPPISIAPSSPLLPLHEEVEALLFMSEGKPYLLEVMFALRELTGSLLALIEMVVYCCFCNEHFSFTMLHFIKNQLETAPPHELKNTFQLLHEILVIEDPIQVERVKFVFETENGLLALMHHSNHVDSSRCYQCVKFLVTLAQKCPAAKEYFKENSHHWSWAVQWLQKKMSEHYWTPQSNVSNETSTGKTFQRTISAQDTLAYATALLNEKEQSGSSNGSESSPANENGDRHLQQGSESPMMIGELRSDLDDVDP
row,inhibition at 1.25 µM [%],SMILES
1,0.8,N#CN1CCC[C@@H](N)C1 [BB4]
2,-0.279,N#CN1CCC[C@H](N)C1 [BB8]
3,0.33,N#CN1CC[C@@H](NC(=O)c2ccc(CN)cc2)C1 [BB9]

# The remaining lines, values behind:
row,SMILES,inhibition at 1.25 µM [%]
1,N#CN1CC[C@@H](N)C1 [BB1],6.1
2,N#CN1CCC(N)CC1 [BB2],5.5
3,N#CN1CC[C@H](N)C1 [BB3],-1.4
4,N#CN1CC(N)C1 [BB5],5
5,N#CN1C[C@H]2C[C@@H](N)C[C@H]2C1 [BB6],3.1
6,N#CN1C[C@H]2C[C@H](N)C[C@H]2C1 [BB7],-3.9
7,N#CN1CC[C@H](C(=O)Nc2nc3c(s2)CNCC3)C1 [BB10],-1.8

# Target: T5, UCHL1 (Homo sapiens, UniProt P09936)
# T5 construct: (1-223); made in house
# T5 sequence (P09936 1-223): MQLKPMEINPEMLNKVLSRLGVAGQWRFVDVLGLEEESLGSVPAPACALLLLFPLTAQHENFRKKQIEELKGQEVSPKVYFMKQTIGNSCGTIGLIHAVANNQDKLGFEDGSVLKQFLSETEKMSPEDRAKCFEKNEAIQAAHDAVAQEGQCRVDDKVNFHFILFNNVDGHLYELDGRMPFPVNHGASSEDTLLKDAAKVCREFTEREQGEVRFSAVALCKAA
# Assay: as above
# Assay type: biochemical
# Settings: individual amine building block (plate NCN-5); read-out: BB %inhibition UCHL1
# Protocol: as §1, §2, §3, §4, §5, §6, §7, §8, §9, §10, §11, §12
row,inhibition at 1.25 µM [%],SMILES
1,3.6,N#CN1CCC[C@@H](N)C1 [BB4]
2,1,N#CN1CCC[C@H](N)C1 [BB8]
3,-0.3,N#CN1CC[C@@H](NC(=O)c2ccc(CN)cc2)C1 [BB9]

# The remaining lines, values behind:
row,SMILES,inhibition at 1.25 µM [%]
1,N#CN1CC[C@@H](N)C1 [BB1],2.6
2,N#CN1CCC(N)CC1 [BB2],4
3,N#CN1CC[C@H](N)C1 [BB3],1.1
4,N#CN1CC(N)C1 [BB5],3.8
5,N#CN1C[C@H]2C[C@@H](N)C[C@H]2C1 [BB6],0.4
6,N#CN1C[C@H]2C[C@H](N)C[C@H]2C1 [BB7],0.7
7,N#CN1CC[C@H](C(=O)Nc2nc3c(s2)CNCC3)C1 [BB10],~35

# Target: T6, UCHL5 (Homo sapiens, UniProt Q9Y5K5)
# T6 construct: (1-329); purchased Novus biochemicals NBP1-72315
# T6 sequence (Q9Y5K5 1-329): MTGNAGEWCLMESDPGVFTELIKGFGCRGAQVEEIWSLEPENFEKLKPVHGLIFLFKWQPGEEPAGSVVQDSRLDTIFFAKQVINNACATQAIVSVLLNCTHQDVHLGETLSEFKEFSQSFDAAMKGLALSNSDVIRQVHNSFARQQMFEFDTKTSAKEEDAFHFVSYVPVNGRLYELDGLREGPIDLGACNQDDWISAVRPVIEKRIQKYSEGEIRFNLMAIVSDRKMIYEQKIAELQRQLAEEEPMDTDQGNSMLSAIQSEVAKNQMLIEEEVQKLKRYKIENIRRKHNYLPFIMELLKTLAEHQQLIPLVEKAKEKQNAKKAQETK
# Assay: as above
# Assay type: biochemical
# Settings: individual amine building block (plate NCN-5); read-out: BB %inhibition UCHL5
# Protocol: as §1, §2, §3, §4, §5, §6, §7, §8, §9, §10, §11, §12
row,inhibition at 1.25 µM [%],SMILES
1,-6.7,N#CN1CCC[C@@H](N)C1 [BB4]
2,4.6,N#CN1CCC[C@H](N)C1 [BB8]
3,-9.9,N#CN1CC[C@@H](NC(=O)c2ccc(CN)cc2)C1 [BB9]

# The remaining lines, values behind:
row,SMILES,inhibition at 1.25 µM [%]
1,N#CN1CC[C@@H](N)C1 [BB1],-4.7
2,N#CN1CCC(N)CC1 [BB2],-3.3
3,N#CN1CC[C@H](N)C1 [BB3],-5.8
4,N#CN1CC(N)C1 [BB5],2.9
5,N#CN1C[C@H]2C[C@@H](N)C[C@H]2C1 [BB6],2.5
6,N#CN1C[C@H]2C[C@H](N)C[C@H]2C1 [BB7],-1.4
7,N#CN1CC[C@H](C(=O)Nc2nc3c(s2)CNCC3)C1 [BB10],-11
